Counter-ions that a name gives are not always drawn.
Legend:
[1] = biological target: T1, fusion protein Tel/PDGF-R beta (PDGF beta receptor) in BaF/3 cells (Homo sapiens, UniProt P09619); experiment: Inhibition of proliferation of BaF3 Tel/PDGF cells (tyrosine kinase activity of PDGF-R beta), CellTiter-Glo, 72 h; format: cell-based, murine; details: 72 h incubation, cellular ATP, read-out: IC50 (concentration that inhibits 50% of the proliferation of Baf3 tel/PDGF cells)
T1 construct: the transmembrane and intracellular part of the PDGF-R beta receptor; expressed in transfected cells; host or cells: murine haematopoietic cell line BaF/3; the other entry of the earlier key: ETV6 (P41212, Transcription factor ETV6)
Text: The inhibitory activity with respect to PDGF or Flt-3 receptors is given by the concentration that inhibits 50% of the proliferation activity of cells Baf3 tel/PDGF or MV4-11, respectively.
Measurement of Inhibition of the Tyrosine Kinase Activity of the Receptor to PDGF Beta (PDGF-Rβ) (Baf-3 tel/PDGFRβ):
This test consists of evaluating the effects of the compounds on the tyrosine kinase activity of the PDGF beta receptor.
The inhibitory effect of the compounds according to the invention on the tyrosine kinase activity of the PDGF-R receptor was evaluated on the murine haematopoietic cell line BaF/3 transfected with a plasmid coding for the fusion protein Tel/PDGF-R beta. This fusion protein is found in chronic myeloid myelomonocytic leukaemias (CMML). It comprises the N-terminal part of the transcription factor Tel and the transmembrane and intracellular part of the PDGF-R beta receptor. This fusion protein is present in dimerized form (presence of an oligomerization domain in the N-terminal part of Tel) and accordingly leads to the constitutive activity of the kinase domain of PDGF-R beta.
The BaF3 Tel/PDGF cells are washed with phosphate buffer and seeded in 96-well plates, at a density of 5.10^4 cells/ml ([…]), in RPMI 1640 containing 10% of FCS, in the presence or absence of the test compounds. After incubation for 72 h, the viable cells are quantified by measurement of cellular ATP using the CellTiter-Glo® kit (Promega, Cat G7571). The cells are treated according to the instructions given by the supplier of the kit and the luminescence is measured with a Luminoskan (Ascent, Labsystem) with the following parameters: measurement: single; integration time: 1000 ms, lag time: 5 s.
It thus appears that the compounds according to the invention have an inhibitory activity on the tyrosine kinase activity of PDGF-R beta. This activity is given by the concentration that inhibits 50% of the proliferation of Baf3 tel/PDGF cells (IC50).

T1 sequence (P09619 with tags, fused parts or gaps): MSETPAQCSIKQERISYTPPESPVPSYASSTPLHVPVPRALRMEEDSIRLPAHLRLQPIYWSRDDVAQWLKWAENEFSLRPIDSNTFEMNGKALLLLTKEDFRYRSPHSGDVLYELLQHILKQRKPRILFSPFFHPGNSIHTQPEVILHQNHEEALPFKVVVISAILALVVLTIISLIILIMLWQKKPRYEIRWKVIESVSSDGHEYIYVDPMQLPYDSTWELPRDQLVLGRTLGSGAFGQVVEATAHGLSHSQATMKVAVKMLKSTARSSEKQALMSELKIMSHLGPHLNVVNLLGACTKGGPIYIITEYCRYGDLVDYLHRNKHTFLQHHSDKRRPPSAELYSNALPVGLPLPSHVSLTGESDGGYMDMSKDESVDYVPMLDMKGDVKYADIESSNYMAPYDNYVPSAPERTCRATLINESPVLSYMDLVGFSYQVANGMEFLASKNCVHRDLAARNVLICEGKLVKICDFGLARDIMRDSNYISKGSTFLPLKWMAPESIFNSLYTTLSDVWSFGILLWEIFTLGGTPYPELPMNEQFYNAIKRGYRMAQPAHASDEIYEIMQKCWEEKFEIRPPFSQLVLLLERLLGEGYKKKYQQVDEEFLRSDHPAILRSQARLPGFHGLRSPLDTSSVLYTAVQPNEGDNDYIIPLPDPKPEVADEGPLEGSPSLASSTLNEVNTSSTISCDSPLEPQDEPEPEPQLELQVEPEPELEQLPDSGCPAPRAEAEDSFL

SMILES	IC50 [1] [nM]	melting point [°C]
Nc1c(-c2ncc[nH]2)c(=O)c2ccc(-c3ccc(CC(=O)NCc4ccncc4)cc3)nc2n1CC1CC1 [Compound 51, 2-{4-[7-Amino-8-cyclopropylmethyl-6-(1H-imidazol-2-yl)-5-oxo-5,8-dihydro-[1,8]naphthyridin-2-yl]-phenyl}-N-pyridin-4-ylmethyl-acetamide]	8.9	–
CCn1c(N)c(-c2ncc[nH]2)c(=O)c2ccc(-c3ccc(CC(=O)Nc4ccc(C)nc4)cc3)nc21 [Compound 10, 2-{4-[7-Amino-8-ethyl-6-(1H-imidazol-2-yl)-5-oxo-5,8-dihydro-[1,8]naphthyridin-2-yl]-phenyl}-N-(6-methyl-pyridin-3-yl)-acetamide]	2.5	–
CCn1c(N)c(-c2nc(C)c[nH]2)c(=O)c2ccc(-c3ccc(CC(=O)NCc4ccncc4)cc3)nc21 (as salt: salt) [Compound 50, 2-{4-[7-Amino-8-ethyl-6-(4-methyl-1H-imidazol-2-yl)-5-oxo-5,8-dihydro-[1,8]naphthyridin-2-yl]-phenyl}-N-pyridin-4-ylmethyl-acetamide]	–	144
CCn1c(N)c(-c2ncc[nH]2)c(=O)c2ccc(-c3ccc(CC(=O)NCCCc4ccccc4)cc3)nc21 [Compound 55, 2-{4-[7-Amino-8-ethyl-6-(1H-imidazol-2-yl)-5-oxo-5,8-dihydro-[1,8]naphthyridin-2-yl]-phenyl}-N-(3-phenyl-propyl)-acetamide]	5.9	–
CCn1c(N)c(-c2ncc[nH]2)c(=O)c2ccc(-c3ccc(CC(=O)Nc4ccccn4)cn3)nc21 (as salt: HCl) [Compound 2, 2-{6-[7-Amino-8-ethyl-6-(1H-imidazol-2-yl)-5-oxo-5,8-dihydro-[1,8]naphthyridin-2-yl]-pyridin-3-yl}-N-pyridin-2-yl-acetamide]	–	200
Nc1c(-c2ncc[nH]2)c(=O)c2ccc(-c3ccc(CC(=O)NCc4ccncc4)cc3)nc2n1C1CCCC1 [Compound 52, 2-{4-[7-Amino-8-cyclopentyl-6-(1H-imidazol-2-yl)-5-oxo-5,8-dihydro-[1,8]naphthyridin-2-yl]-phenyl}-N-pyridin-4-ylmethyl-acetamide]	13.6	–
CCn1c(N)c(-c2ncc[nH]2)c(=O)c2ccc(-c3ccc(CC(=O)NCc4ccncc4)nc3)nc21 (as salt: TFA) [Compound 53, 2-{5-[7-Amino-8-ethyl-6-(1H-imidazol-2-yl)-5-oxo-5,8-dihydro-[1,8]naphthyridin-2-yl]-pyridin-2-yl}-N-pyridin-4-ylmethyl-acetamide]	–	120
CCn1c(N)c(-c2ncc[nH]2)c(=O)c2ccc(-c3ccc(C(C)C(=O)NCc4ccncc4)cc3)nc21 (stereo not drawn) [Compound 47, 2-{4-[7-Amino-8-ethyl-6-(1H-imidazol-2-yl)-5-oxo-5,8-dihydro-[1,8]naphthyridin-2-yl]-phenyl}-N-pyridin-4-ylmethyl-propionamide]	–	186
CCn1c(N)c(-c2ncc[nH]2)c(=O)c2ccc(-c3ccc(CCCC(=O)NCc4ccncc4)cc3)nc21 [Compound 49, 4-{4-[7-Amino-8-ethyl-6-(1H-imidazol-2-yl)-5-oxo-5,8-dihydro-[1,8]naphthyridin-2-yl]-phenyl}-N-pyridin-4-ylmethyl-butyramide]	–	240
CCn1c(N)c(-c2ncc[nH]2)c(=O)c2ccc(-c3ccc(CC(=O)Nc4ccccn4)cn3)nc21 [Compound 2, 2-{6-[7-Amino-8-ethyl-6-(1H-imidazol-2-yl)-5-oxo-5,8-dihydro-[1,8]naphthyridin-2-yl]-pyridin-3-yl}-N-pyridin-2-yl-acetamide]	7.9	–

Next, values leading:

IC50 [1] [nM]	melting point [°C]	SMILES
9.8	–	CCN1CCCC1CNC(=O)Cc1ccc(-c2ccc3c(=O)c(-c4ncc[nH]4)c(N)n(CC)c3n2)c(C)c1 (stereo not drawn) [Compound 9, 2-{4-[7-Amino-8-ethyl-6-(1H-imidazol-2-yl)-5-oxo-5,8-dihydro-[1,8]naphthyridin-2-yl]-3-methyl-phenyl}-N-(1-ethyl-pyrrolidin-2-ylmethyl)-acetamide]
2.4	–	CCn1c(N)c(-c2ncc[nH]2)c(=O)c2ccc(-c3ccc(CC(=O)Nc4nnc(C)s4)cc3)nc21 [Compound 14, 2-{4-[7-Amino-8-ethyl-6-(1H-imidazol-2-yl)-5-oxo-5,8-dihydro-[1,8]naphthyridin-2-yl]-phenyl}-N-(5-methyl-[1,3,4]thiadiazol-2-yl)-acetamide]
–	210	CCn1c(N)c(-c2ncc[nH]2)c(=O)c2ccc(-c3ccc(CC(=O)NCC4COCCN4C4CC4)cc3)nc21 (stereo not drawn) (as salt: HCl) [Compound 3, 2-{4-[7-Amino-8-ethyl-6-(1H-imidazol-2-yl)-5-oxo-5,8-dihydro-[1,8]naphthyridin-2-yl]-phenyl}-N-(4-cyclopropyl-morpholin-3-ylmethyl)-acetamide]
–	118	Nc1c(-c2ncc[nH]2)c(=O)c2ccc(-c3ccc(CC(=O)NCc4ccncc4)cc3)nc2n1CC1CC1 (as salt: TFA) [Compound 51, 2-{4-[7-Amino-8-cyclopropylmethyl-6-(1H-imidazol-2-yl)-5-oxo-5,8-dihydro-[1,8]naphthyridin-2-yl]-phenyl}-N-pyridin-4-ylmethyl-acetamide]
–	100	CCN1CCCC1CNC(=O)Cc1ccc(-c2ccc3c(=O)c(-c4ncc[nH]4)c(N)n(CC)c3n2)cc1F (stereo not drawn) [Compound 56, 2-{4-[7-Amino-8-ethyl-6-(1H-imidazol-2-yl)-5-oxo-5,8-dihydro-[1,8]naphthyridin-2-yl]-2-fluoro-phenyl}-N-(1-ethyl-pyrrolidin-2-ylmethyl)-acetamide]

Source: patent publication US8623893B2, “Pyridino-pyridinone derivatives, preparation and therapeutic use thereof” (SANOFI, priority 2009, dated 2014)
